Source: the supplement of paper PMC10307832

Columns and labels:
Experiment in all cases: relative viability (nuclei count vs DMSO), 5 days (fraction); higher = more cells survive
Ruxolitinib + Decitabine = compound: N#CC[C@H](C1CCCC1)n1cc(-c2ncnc3[nH]ccc23)cn1 [Ruxolitinib] + Nc1ncn([C@H]2C[C@H](O)[C@@H](CO)O2)c(=O)n1 [Decitabine] (partner 2 µM)
Method in brief: (§1)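 Relative viability is defined as nuclei in treated wells over nuclei in vehicle wells. Duplicate plates were run and medians reported. Lung cancer cell lines in 1536-well plates were dosed by pin tool one day after seeding, with one drug or with a fixed anchor-drug dose plus five library-drug doses (not always all listed) in √10 steps, and nuclei were counted after 5 days.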

Vismodegib + Pemetrexed = compound: CS(=O)(=O)c1ccc(C(=O)Nc2ccc(Cl)c(-c3ccccn3)c2)c(Cl)c1 [Vismodegib] + Nc1nc2[nH]cc(CCc3ccc(C(=O)N[C@@H](CCC(=O)O)C(=O)O)cc3)c2c(=O)[nH]1 [Pemetrexed] (partner 0.2 µM)
Method in brief: as §1

VE-821 + Foretinib = compound: CS(=O)(=O)c1ccc(-c2cnc(N)c(C(=O)Nc3ccccc3)n2)cc1 [VE-821] + COc1cc2c(Oc3ccc(NC(=O)C4(C(=O)Nc5ccc(F)cc5)CC4)cc3F)ccnc2cc1OCCCN1CCOCC1 [Foretinib] (partner 0.25 µM)
Method in brief: as §1

Ruxolitinib + Tozasertib = compound: N#CC[C@H](C1CCCC1)n1cc(-c2ncnc3[nH]ccc23)cn1 [Ruxolitinib] + Cc1cc(Nc2cc(N3CCN(C)CC3)nc(Sc3ccc(NC(=O)C4CC4)cc3)n2)n[nH]1 [Tozasertib] (partner 0.1 µM)
Method in brief: as §1

| Cell Line | relative viability (Ruxolitinib + Decitabine; first compound 0.08 µM) | relative viability (Ruxolitinib + Decitabine; first compound 0.253 µM) | relative viability (Ruxolitinib + Decitabine; first compound 0.8 µM) | relative viability (Ruxolitinib + Decitabine; first compound 2.53 µM) | relative viability (Ruxolitinib + Decitabine; first compound 8 µM) | relative viability (Vismodegib + Pemetrexed; first compound 0.08 µM) | relative viability (Vismodegib + Pemetrexed; first compound 0.253 µM) | relative viability (Vismodegib + Pemetrexed; first compound 0.8 µM) | relative viability (Vismodegib + Pemetrexed; first compound 2.53 µM) | relative viability (Vismodegib + Pemetrexed; first compound 8 µM) | relative viability (VE-821 + Foretinib; first compound 0.08 µM) | relative viability (VE-821 + Foretinib; first compound 0.253 µM) | relative viability (VE-821 + Foretinib; first compound 0.8 µM) | relative viability (VE-821 + Foretinib; first compound 2.53 µM) | relative viability (VE-821 + Foretinib; first compound 8 µM) | relative viability (Ruxolitinib + Tozasertib; first compound 0.08 µM) | relative viability (Ruxolitinib + Tozasertib; first compound 0.253 µM) | relative viability (Ruxolitinib + Tozasertib; first compound 0.8 µM) | relative viability (Ruxolitinib + Tozasertib; first compound 2.53 µM) | relative viability (Ruxolitinib + Tozasertib; first compound 8 µM) |
| --- | --- | --- | --- | --- | --- | --- | --- | --- | --- | --- | --- | --- | --- | --- | --- | --- | --- | --- | --- | --- |
| ChaGo-K-1 | 0.515 | 0.529 | 0.52 | 0.447 | 0.478 | 0.256 | 0.256 | 0.255 | 0.265 | 0.263 | 0.988 | 0.971 | 0.814 | 1 | 0.734 | 0.246 | 0.243 | 0.454 | 0.176 | 0.195 |
| HCC-44 | 0.931 | 0.971 | 0.895 | 0.877 | 0.83 | 0.663 | 0.629 | 0.616 | 0.638 | 0.677 |  |  |  |  |  | 0.953 | 1.11 | 1.15 | 0.804 | 0.761 |
| NCI-H441 | 0.244 | 0.238 | 0.21 | 0.16 | 0.26 | 0.247 |  | 0.246 | 0.247 | 0.283 | 1.36 | 1.04 | 1.19 | 1.04 | 0.928 | 0.63 | 0.629 | 0.716 | 0.625 | 0.587 |
| NCI-H1299 |  |  |  |  |  |  |  |  |  |  | 1.1 | 1.08 | 1.04 | 1 | 1 |  |  |  |  |  |
| LU99A | 0.918 | 0.938 | 0.886 | 0.639 | 0.836 | 0.187 | 0.164 | 0.246 | 0.163 | 0.176 | 0.903 | 0.763 | 0.802 | 0.851 | 0.462 | 0.296 | 0.26 | 0.298 | 0.303 | 0.316 |
| NCI-H520 | 0.506 | 0.484 | 0.553 | 0.47 | 0.525 | 0.743 | 0.619 | 0.827 | 0.709 | 0.666 | 0.853 | 0.727 | 0.454 | 1.45 | 0.762 | 0.553 | 0.467 | 0.537 | 0.439 | 0.477 |
| EPLC-272H | 0.408 | 0.367 | 0.439 | 0.414 | 0.36 | 0.285 | 0.418 | 0.324 | 0.317 | 0.33 | 0.803 | 0.747 | 0.804 | 0.692 | 0.341 | 0.25 | 0.407 | 0.241 | 0.345 | 0.264 |
| PC-14 |  | 0.282 | 0.207 | 0.153 | 0.156 | 0.148 | 0.135 | 0.133 | 0.144 | 0.136 | 1.1 | 0.913 | 0.974 | 1.02 | 0.984 |  | 0.677 | 0.58 | 0.471 | 0.483 |
| LCLC-103H | 0.83 | 0.775 | 0.802 | 0.656 | 0.658 | 0.431 | 0.552 | 0.474 | 0.473 | 0.481 | 0.926 | 0.876 | 0.82 | 0.914 | 0.572 | 0.492 | 0.519 | 0.595 | 0.552 | 0.501 |
